# Measurements taken from US10898547B2, “Method of treatment of breast or colon cancer by administering muscle stimulated myokines” (Unicorn Therapeutics, LLC, priority 2016, dated 2021).
# Experiments:
# Type in all cases: cell-based
# [1] = tested on: Huh7; assay: WST cellular proliferation assay in Huh7 HCC cells; conditions: 24-48 hrs, sorafenib 1, 2 and 5 micromolar
# [2] = tested on: HepG2; assay: WST cellular proliferation assay in HepG2 HCC cells; conditions: 24-48 hrs, sorafenib 1, 2 and 5 micromolar
# [3] = tested on: HepG2; assay: Western blot of metabolic markers (pAMPK, pAKT, pACC) in HepG2 cells; parameters: dose or concentration left out as unconfirmed; conditions: HepG2, sorafenib (FIG. 6A)
# [4] = tested on: HT-29; assay: 5′FU dosage determination in HT-29 cells, 96-well plate; conditions: HT-29, after 48 hrs
SMILES,cellular proliferation [1],cellular proliferation [2],pAMPK expression [3],concentration showing the best effect without suggestion of cytotoxicity [4] [µM]
CNC(=O)c1cc(Oc2ccc(NC(=O)Nc3ccc(Cl)c(C(F)(F)F)c3)cc2)ccn1 [sorafenib],decrease,decrease,increase,
"O=c1[nH]cc(F)c(=O)[nH]1 [5′FU, 5-fluorouracil]",,,,25
